Reference: ChEMBL document CHEMBL1201862, “PubChem BioAssay data set” (2004)
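Compound exposure: 48 hours, 5 concentrations, 96-well plates. GI50: concentration for 50% inhibition of growth.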 Activity calls are given as the source filed them. Cut-off read from the data, not from the text of the source: active = GI50 up to about 1.1 µM and inactive = higher.

Experiments:
Assay in all cases: NCI anticancer screen, dose series, 48 h
RPMI-8226 = tested on: RPMI-8226
K562 = tested on: K562
RXF 393 = tested on: RXF 393
CCRF-CEM = tested on: CCRF-CEM
COLO 205 = tested on: COLO 205
NCI-H23 = tested on: NCI-H23
DMS-273 = tested on: DMS-273
SNB-75 = tested on: SNB-75
HOP-62 = tested on: HOP-62
NCI-H226 = tested on: NCI-H226
LXFL 529 = tested on: LXFL 529
LOX IMVI = tested on: LOX IMVI
HOP-18 = tested on: HOP-18
SW-620 = tested on: SW-620
SK-MEL-28 = tested on: SK-MEL-28
UACC-62 = tested on: UACC-62
SNB-78 = tested on: SNB-78
XF498 = tested on: XF498
MOLT-4 = tested on: MOLT-4
CAKI-1 = tested on: CAKI-1
M19-MEL = tested on: M19-MEL
M14 = tested on: M14
HCT-116 = tested on: HCT-116
A549 = tested on: A549
HL-60 = tested on: HL-60
Malme-3M = tested on: Malme-3M
786-0 = tested on: 786-0
OVCAR-5 = tested on: OVCAR-5
ACHN = tested on: ACHN
SF-295 = tested on: SF-295
SF-268 = tested on: SF-268
KM-20L2 = tested on: KM-20L2
SNB-19 = tested on: SNB-19
SN12C = tested on: SN12C
OVCAR-8 = tested on: OVCAR-8
OVCAR-4 = tested on: OVCAR-4
KM12 = tested on: KM12
TK-10 = tested on: TK-10
UACC-257 = tested on: UACC-257
SK-OV-3 = tested on: SK-OV-3
SK-MEL-5 = tested on: SK-MEL-5
HOP-92 = tested on: HOP-92
SF-539 = tested on: SF-539
RXF 631 = tested on: RXF 631
SR = tested on: SR
DMS-114 = tested on: DMS-114
HT-29 = tested on: HT-29
DLD-1 = tested on: DLD-1
NCI-H522 = tested on: NCI-H522
HCC 2998 = tested on: HCC 2998
U-251 = tested on: U-251
NCI-H460 = tested on: NCI-H460
EKVX = tested on: EKVX
SK-MEL-2 = tested on: SK-MEL-2
UO-31 = tested on: UO-31
OVCAR-3 = tested on: OVCAR-3
A498 = tested on: A498
HCT-15 = tested on: HCT-15
IGROV-1 = tested on: IGROV-1

CCOC(=O)/C(=C/c1ccc[nH]1)P(=O)(OCC)OCC
GI50 (RPMI-8226): > 100 µM (inactive) | GI50 (K562): > 100 µM (inactive) | GI50 (RXF 393): > 100 µM (inactive) | GI50 (CCRF-CEM): > 100 µM (inactive) | GI50 (COLO 205): > 100 µM (inactive) | GI50 (NCI-H23): > 100 µM (inactive) | GI50 (DMS-273): > 100 µM (inactive) | GI50 (SNB-75): 77.6 µM (inactive) | GI50 (HOP-62): > 100 µM (inactive) | GI50 (NCI-H226): > 100 µM (inactive) | GI50 (LXFL 529): > 100 µM (inactive) | GI50 (LOX IMVI): > 100 µM (inactive) | GI50 (HOP-18): > 100 µM (inactive) | GI50 (SW-620): > 100 µM (inactive) | GI50 (SK-MEL-28): > 100 µM (inactive) | GI50 (UACC-62): > 100 µM (inactive) | GI50 (SNB-78): > 100 µM (inactive) | GI50 (XF498): > 100 µM (inactive) | GI50 (MOLT-4): > 100 µM (inactive) | GI50 (CAKI-1): > 100 µM (inactive) | GI50 (M19-MEL): > 100 µM (inactive) | GI50 (M14): > 100 µM (inactive) | GI50 (HCT-116): > 100 µM (inactive) | GI50 (A549): > 100 µM (inactive) | GI50 (HL-60): > 100 µM (inactive) | GI50 (Malme-3M): > 100 µM (inactive) | GI50 (786-0): > 100 µM (inactive) | GI50 (OVCAR-5): > 100 µM (inactive) | GI50 (ACHN): > 100 µM (inactive) | GI50 (SF-295): > 100 µM (inactive) | GI50 (SF-268): > 100 µM (inactive) | GI50 (KM-20L2): > 100 µM (inactive) | GI50 (SNB-19): > 100 µM (inactive) | GI50 (SN12C): > 100 µM (inactive) | GI50 (OVCAR-8): > 100 µM (inactive) | GI50 (OVCAR-4): > 100 µM (inactive) | GI50 (KM12): > 100 µM (inactive) | GI50 (TK-10): > 100 µM (inactive) | GI50 (UACC-257): > 100 µM (inactive) | GI50 (SK-OV-3): > 100 µM (inactive) | GI50 (SK-MEL-5): > 100 µM (inactive) | GI50 (HOP-92): 94.2 µM (inactive) | GI50 (SF-539): > 100 µM (inactive) | GI50 (RXF 631): > 100 µM (inactive) | GI50 (SR): > 100 µM (inactive) | GI50 (DMS-114): > 100 µM (inactive) | GI50 (HT-29): > 100 µM (inactive) | GI50 (DLD-1): > 100 µM (inactive) | GI50 (NCI-H522): > 100 µM (inactive) | GI50 (HCC 2998): > 100 µM (inactive) | GI50 (U-251): > 100 µM (inactive) | GI50 (NCI-H460): > 100 µM (inactive) | GI50 (EKVX): > 100 µM (inactive) | GI50 (SK-MEL-2): > 100 µM (inactive) | GI50 (UO-31): > 100 µM (inactive) | GI50 (OVCAR-3): > 100 µM (inactive)

C(=C\c1csnn1)/c1cccnc1
GI50 (RPMI-8226): > 100 µM (inactive) | GI50 (K562): > 100 µM (inactive) | GI50 (RXF 393): > 100 µM (inactive) | GI50 (COLO 205): > 100 µM (inactive) | GI50 (NCI-H23): > 100 µM (inactive) | GI50 (SNB-75): > 100 µM (inactive) | GI50 (HOP-62): > 100 µM (inactive) | GI50 (NCI-H226): > 100 µM (inactive) | GI50 (LXFL 529): 75.7 µM (inactive) | GI50 (LOX IMVI): > 100 µM (inactive) | GI50 (HOP-18): > 100 µM (inactive) | GI50 (SW-620): > 100 µM (inactive) | GI50 (SK-MEL-28): > 100 µM (inactive) | GI50 (SNB-78): > 100 µM (inactive) | GI50 (XF498): > 100 µM (inactive) | GI50 (MOLT-4): > 100 µM (inactive) | GI50 (M19-MEL): > 100 µM (inactive) | GI50 (M14): > 100 µM (inactive) | GI50 (HCT-116): > 100 µM (inactive) | GI50 (A549): > 100 µM (inactive) | GI50 (A498): > 100 µM (inactive) | GI50 (HL-60): > 100 µM (inactive) | GI50 (Malme-3M): > 100 µM (inactive) | GI50 (786-0): > 100 µM (inactive) | GI50 (OVCAR-5): > 100 µM (inactive) | GI50 (ACHN): > 100 µM (inactive) | GI50 (SF-295): > 100 µM (inactive) | GI50 (SF-268): > 100 µM (inactive) | GI50 (KM-20L2): > 100 µM (inactive) | GI50 (SNB-19): > 100 µM (inactive) | GI50 (SN12C): > 100 µM (inactive) | GI50 (OVCAR-8): > 100 µM (inactive) | GI50 (OVCAR-4): > 100 µM (inactive) | GI50 (KM12): > 100 µM (inactive) | GI50 (TK-10): > 100 µM (inactive) | GI50 (UACC-257): > 100 µM (inactive) | GI50 (SK-OV-3): > 100 µM (inactive) | GI50 (SF-539): > 100 µM (inactive) | GI50 (RXF 631): 81.7 µM (inactive) | GI50 (DMS-114): > 100 µM (inactive) | GI50 (HT-29): > 100 µM (inactive) | GI50 (DLD-1): > 100 µM (inactive) | GI50 (NCI-H522): > 100 µM (inactive) | GI50 (HCC 2998): > 100 µM (inactive) | GI50 (U-251): > 100 µM (inactive) | GI50 (NCI-H460): > 100 µM (inactive) | GI50 (EKVX): > 100 µM (inactive) | GI50 (SK-MEL-2): > 100 µM (inactive) | GI50 (UO-31): > 100 µM (inactive) | GI50 (HCT-15): > 100 µM | GI50 (OVCAR-3): > 100 µM (inactive)

O=C1Cc2ccccc2N1/N=C\c1ccc(O)cc1
GI50 (RPMI-8226): 58.1 µM (inactive) | GI50 (K562): 61.4 µM (inactive) | GI50 (CCRF-CEM): 11.5 µM (inactive) | GI50 (COLO 205): > 100 µM (inactive) | GI50 (NCI-H23): 71.1 µM (inactive) | GI50 (DMS-273): > 100 µM (inactive) | GI50 (SNB-75): 18.1 µM (inactive) | GI50 (HOP-62): 49.7 µM (inactive) | GI50 (NCI-H226): > 100 µM (inactive) | GI50 (LOX IMVI): > 100 µM (inactive) | GI50 (HOP-18): > 100 µM (inactive) | GI50 (SW-620): > 100 µM (inactive) | GI50 (SK-MEL-28): > 100 µM (inactive) | GI50 (UACC-62): > 100 µM (inactive) | GI50 (SNB-78): > 100 µM (inactive) | GI50 (XF498): > 100 µM (inactive) | GI50 (MOLT-4): 13.4 µM (inactive) | GI50 (CAKI-1): > 100 µM (inactive) | GI50 (M19-MEL): > 100 µM (inactive) | GI50 (M14): > 100 µM (inactive) | GI50 (HCT-116): > 100 µM (inactive) | GI50 (A549): 64.9 µM (inactive) | GI50 (A498): > 100 µM (inactive) | GI50 (Malme-3M): > 100 µM (inactive) | GI50 (786-0): > 100 µM (inactive) | GI50 (OVCAR-5): > 100 µM (inactive) | GI50 (ACHN): 53.7 µM (inactive) | GI50 (SF-295): 77.4 µM (inactive) | GI50 (SF-268): 50.6 µM (inactive) | GI50 (IGROV-1): > 100 µM (inactive) | GI50 (KM-20L2): > 100 µM (inactive) | GI50 (SNB-19): > 100 µM (inactive) | GI50 (SN12C): > 100 µM (inactive) | GI50 (OVCAR-8): > 100 µM (inactive) | GI50 (OVCAR-4): > 100 µM (inactive) | GI50 (KM12): > 100 µM (inactive) | GI50 (TK-10): > 100 µM (inactive) | GI50 (UACC-257): 47 µM (inactive) | GI50 (SK-OV-3): > 100 µM (inactive) | GI50 (SK-MEL-5): 44.1 µM (inactive) | GI50 (HOP-92): > 100 µM (inactive) | GI50 (SF-539): 95.7 µM (inactive) | GI50 (RXF 631): > 100 µM (inactive) | GI50 (DMS-114): 21.8 µM (inactive) | GI50 (HT-29): > 100 µM (inactive) | GI50 (HCC 2998): > 100 µM (inactive) | GI50 (U-251): > 100 µM (inactive) | GI50 (NCI-H460): > 100 µM (inactive) | GI50 (EKVX): 82.2 µM (inactive) | GI50 (SK-MEL-2): > 100 µM (inactive) | GI50 (UO-31): 45.1 µM (inactive) | GI50 (HCT-15): 91 µM | GI50 (OVCAR-3): > 100 µM (inactive)
